Data taken from US20140348966A1, “GARCINIA BUCHANANII BAKER COMPOUNDS, COMPOSITIONS AND RELATED METHODS” (priority 2011, published 2014).
Values joined by “and” are separate entries in the source; they are usually repeats but may differ in a detail not shown here. Equal entries are not always repeated. Structures can show the parent of a compound that is named as a salt.

Key:
[1] = hydrogen peroxide scavenging assay; type: biochemical; conditions: isolated and reference compounds; read-out: H2O2 assay EC50
Method: Hydrogen peroxide scavenging assay was performed in accordance with the method of Ichikawa, M. and colleagues (2002). Sample solutions at appropriate concentration were prepared using phosphate buffer (100 mM, pH 6.0). Sample solution ([…]), phosphate buffer (30 mL, 100 mM, pH 6.0), and hydrogen peroxide solution (10 mL, 500 mM) were mixed in 96-well clear microplate (VWR, Ismaning, Germany). Then peroxidase (40 mL, 150 U/mL) and ABTS (40 mL, 0.1%) were added. The microplate was incubated at 37° C. for 15 min. The absorbance (A) of each well was measured at 414 nm with FLUOstar OPTIMA (BMG LABTECH, Offenburg, Germany). […] After freeze-drying three times 1 MPLC fractions M1-M8 were analyzed in natural concentrations.
E=[(A−Ablank)control−(A−Ablank)test]/(A−Ablank)control·100

[2] = oxygen radical absorbance capacity (ORAC) assay; type: biochemical; conditions: isolated and reference compounds
Method: ORAC assay was carried out according to the method of Ou, G. and colleagues (1993) with some modifications. Trolox and FL were used as a standard and a fluorescent probe respectively. Free radicals were produced by AAPH to oxidize FL. Different dilutions of Trolox ([…]) and appropriate dilutions of tested sample were prepared with phosphate buffer (10 mM, pH 7.4). Trolox dilution ([…]) or sample solution were pipetted into a well of 96-well black microplate (VWR) and then FL (150 mL, 10 nM) was added. The reaction mixture was incubated at 37° C. for 30 min Afterward s, fluorescence was measured every 90 sec at the excitation of 485 nm and the emission of 520 nm using FLUOstar OPTIMA. After 3 cycles, AAPH ([…], 240 mM) was added quickly, and then the measurement was resumed and continued up to 90 min (60 cycles in total). The background signal was determined using the first 3 cycles. The ORAC values were calculated according to the method of Ou, G. and colleagues (1993) and expressed as Trolox equivalent (mmol TE/mmol). After freeze-drying in triplicate, MPLC fractions M1-M8 were analyzed in natural concentrations.

[3] = test system: guinea pig distal colon; assay: fecal pellet propulsion motility assay in isolated distal colon (GIMM)
Method: Gastrointestinal Motility Assays: Segments (˜10 cm long) of distal colon were pinned on either end in a Sylgard-lined 50 mL organ bath, continuously perfused with oxygenated Krebs solution (rate: 10 mL min^−1) and maintained at temperatures between 36 and 37° C. Tissues were initially allowed to equilibrate for 30 mins in re-circulating Krebs solution. Colonic motility was studied using the Gastronintestinal Motility Monitoring system (GIMM; Med-Associates Inc., Saint Albans, Vt., USA), which included a digital video camera (Catamount Research and Development Inc, St Albans, Vt., USA) to film fecal pellet propulsion. Trials were separated by 5-min recovery periods between successive pellet runs. The GIMM system software calculated velocities by tracking pellets as they traversed colon segments. After initial equilibration, five pellet propulsion trials in vehicle solution were obtained to determine the basal velocity for each tissue preparation. To reduce variations between runs and experiments, the values obtained were used to generate a normalized basal velocity by dividing the values of the 4th-5th runs by the value of the 1st-2nd runs. Garcinia buchananii stem bark extract and test compounds dissolved in 100 mL of Krebs solution were superfused either into the organ bath or into the lumen of the colon using polyethylene tubing [PE 205; outside diameter 9.5 mm (BD-Worldwide, Sparks, Md., USA)]. The effects of extract and test compounds were evaluated by obtaining velocities of four trials taken at 5-min intervals (5-20 min) Normalized velocity data for these treatments were obtained by dividing the test velocities acquired by the average velocity of the five pellet propulsion runs performed in vehicle solution (runs 1-5, above). Normalized data became ratios without units, and were presented as a percent velocity of basal activity for each tissue. Velocities of pellet propulsion were also studied during washout of tissue with Krebs solution (after extract or test compound application) for 20 min
A segment (˜10-12 cm long) of distal colon was pinned on either end in a Sylgard-lined 50 mL organ bath being continuously perfused with oxygenated Krebs solution (rate: 10 mL min^−1) and maintained at temperatures between 36-37° C. Nail-polish-coated guinea-pig pellets similar in shape and size to the “native” colonic fecal pellets were used to determine propulsive velocities using the Gastrointestinal Motility Monitoring system (Med-Associates Inc., Saint Albans, Vt., USA) for filming pellet propulsion as described by Hoffman and others (2010). Velocity was calculated based on the time required for pellets to traverse 5-6 cm of the central colon segment ending 1 cm from the aboral end. Data collection started after 30 minutes of equilibration. A five-minute interval was used to allow equilibration of motor activity between successive pellet runs. Baseline velocities were measured for 20 minutes.
In intraluminal studies, the aqueous extract was prepared by suspending 2 g of G. buchananii bark powder in 100 mL Krebs, whereas 1 g G. buchananii bark powder prepared in the same manner was used for bath (serosal) applications. The extract-Krebs mixture was continuously stirred for 30 minutes and filtered using analytical filter paper (Schleicher and Schuell Blue Ribbon filter paper 589/3; 0.2 μm retention). Garcinia buchananii extract and test compounds were delivered to isolated colons in Krebs solution, and evaluated for effects on pellet propulsion during 20-25 minute time intervals. Intraluminal drug deliveries (350 μL min^−1 Krebs solution) were performed using polyethylene tubing (PE 205; outside diameter 9.5 mm) inserted ˜1.5 cm into the oral end of the segments. In bath deliveries, G. buchananii extract and test compounds were superfused directly into the organ bath. Studies involving PTLC fractions were performed using the organ bath delivery method only.

[4] = test system: Wistar rats with high-lactose diet-induced diarrhea; assay: high-lactose diet (HLD) induced diarrhea in rats; type: in vivo
Method: A high-lactose (35%) diet induced diarrhea in Wistar rats, which were then treated with either G. buchananii bark extract (0.1, 0.5, 1.0 and 5.0 g bark powder) or its anti-motility fractions isolated using preparative thin layer chromatography; termed PTLC1 (15 mg) and PTLC5 (3.8 mg) or loperamide (8.4 mg), each dissolved in 1 liter of tap water. Numerous parameters were measured in each condition including consistency, fluid and mucus content of feces, body weight, water and food consumption, urine production and bloating.
The study was conducted in accordance with the regulations of the University of Idaho Institutional Animal Care and Use Committee (IACUC). Sixty two, 10 week old Wistar rats were obtained from Harlan Animal Research Laboratory (Hayward Calif., USA). Rats were individually caged (23-24° C.; 12:12 h light-dark cycle) and quarantined for one week. Rats were fed a standard chow diet ad libitum (Animal Specialties, Hubbard, Oreg., USA) and had free access to water for four days prior to the inducement of diarrhea. A high-lactose diet (HLD) containing 35% lactose in place of starch (3.004 Kcal; Purina Mills; Richmond, Ind., USA) was fed to 52 rats. Diarrhea was induced within 24-48 hours after consuming the diet. Rats were monitored for changes in consistency of pellets and stool mass, fecal fluid and urine production (mass; g and volume; ml). Rats were considered diarrheic if they produced watery stools, soft, yellowish stools compared to normal, pliable, soft, well-formed pellets as previously described by other researchers.
Four days after introducing rats to a HLD, diarrheic rats were treated using varying doses of G. buchananii extract, its anti-motility fractions isolated using preparative thin layer chromatoghraphy (PTLC1 & PTLC5) and loperamide for standard comparison. Rats were maintained on a HLD during the entire treatment period.
Garcinia buchananii bark powder was prepared from stem barks collected from trees in their natural habitat in Karagwe, Tanzania, as described previously by Balemba, OB and colleagues, 2010. A sample can be found at the University of Idaho Stillinger herbarium (voucher #159918). 0.1 g, 0.5 g, 1.0 g and 5.0 g of G. buchananii bark powder were each suspended in 1 L of tap water, stirred for 30 minutes and filtered. The filtrate was then immediately used to treat rats against lactose-induced diarrhea.
Twenty nine rats on a HLD were randomly assigned and treated with varying doses of G. buchananii extract (0.1 g, 0.5 g, 1 g, and 5 g extract; n=6-10 rats per group). Eight rats were treated with PTLC1 or PTLC5 (each n=4) at a dose of 15 mg and 3.8 mg in 100 mL tap water, respectively. For control treatments, seven rats were treated with loperamide (8.4 mg/L tap water), eight rats were left untreated (HLD control) and ten rats received control standard chow diets (SD). Rats were treated for a total of four days, receiving freshly made drugs every two days.
We studied the impact of a HLD and all the treatments on the consistency, form and appearance of feces. Body weight, food and water intake were measured every two days for the entire period. Diarrheic rats treated with G. buchananii (0.1 g/l, 1.0 g/l) and loperamide were used to study fecal fluid content, stool mass and urine production compared with untreated rats on a HLD and SD control diets (n=3-5). To achieve this, pellets/stools and urine were allowed to drop on non-leaking, polyester plastic mats spread in metal trays placed beneath wired cages housing rats. Pellets/stools and urine were collected every three hours, for 24 hours, for a 12-day period. Disposable polyethylene transfer pipettes (5.5 mL) were used to collect urine. Pellets/stools were collected by using custom-made pieces of Inkjet transparencies. The samples were stored in disposable, polypropylene containers (100 mL) tightly capped to avoid loss of moisture due to vaporization. […]

[5] = bath (serosal) application, 20 min, extract 1 g/100 mL Krebs, PTLC1 15 mg, PTLC5 3.8 mg/100 mL, RS-56812 50 nmol/L, cisapride 100 nmol/L, CJ-033466 300 nmol/L, granisetron 1 μmol/L, ondansetron 0.5 μmol/L, GR-113808 5 μmol/L
[6] = intraluminal delivery, 5 min, extract 2 g bark powder/100 mL Krebs, 5-HT 0.5 μmol/L, RS-56812 50 nmol/L, cisapride 100 nmol/L, CJ-033466 300 nmol/L, GR-113808 5 μM
[7] = intraluminal delivery, 15 min, extract 2 g bark powder/100 mL Krebs, drug concentrations as at 5 min
[8] = intraluminal delivery, 20 min, extract 2 g bark powder/100 mL Krebs, drug concentrations as at 5 min
[9] = HLD rats, PTLC1 15 mg, PTLC5 3.8 mg in 100 mL tap water, loperamide 8.4 mg/L, after 24 hrs to the 4th day
[10] = HLD rats, loperamide 8.4 mg/L, PTLC1 15 mg/100 mL, PTLC5 3.8 mg/100 mL

| Structure (SMILES) | pellet propulsion, percent of normalized baseline pellet velocity [3, 5] | pellet propulsion, percent of normalized baseline pellet velocity [3, 6] [%] | pellet propulsion, percent of normalized baseline pellet velocity [3, 7] [%] | pellet propulsion, percent of normalized baseline pellet velocity [3, 8] [%] | other results |
| --- | --- | --- | --- | --- | --- |
| O=C1CC(c2ccc(O)cc2)Oc2cc(O)cc(O)c21 (racemic) [(±)-naringenin] |  |  |  |  | EC50 [1]: 8.6 µM; ORAC assay [2]: 3.96 μmol TE/μmol |
| Cc1cn2c(N)c(Cl)cc(C(=O)NCC3CCN(CC(C)C)CC3)c2n1 [CJ-033466] | 102.8±6.5% | 132.7 ± 7.1 | 112.1 ± 6.7 | 116.6 ± 5.6 |  |
| NCCc1c[nH]c2ccc(O)cc12 [Compound 5-HT, Serotonin hydrochloride] |  | 118.3 ± 16.2 | 117.6 ± 13.5 | 114.3 ± 11.9 |  |
| Cn1cc(C(=O)OCC2CCN(CCNS(C)(=O)=O)CC2)c2ccccc21 [GR-113808] | did not alter pellet propulsion | 109.3 ± 6.1 | 93.2 ± 3.6 | 91.7 ± 3.1 | inhibition of pellet propulsion ([3]; intraluminal, after 20 minutes, extract 2 g/100 mL Krebs, granisetron 2 μM, GR-113808 5 μM): 10% |
| Cn1cc(C(=O)C(=O)NC2CN3CCC2CC3)c2ccccc21 (stereo not shown) [RS-56812] | 103.3±4.7% | 119.7 ± 5.2 | 119.6 ± 5.4 | 126.7 ± 9.2 |  |
| COc1cc(N)c(Cl)cc1C(=O)NC1CCN(CCCOc2ccc(F)cc2)CC1OC (stereo not shown) [cisapride, Cisapride] | 85.0±5.5% and 85.0±5.9% | 115.6 ± 4.9 | 109.6 ± 9.3 | 122.0 ± 8.2 | inhibition of pellet propulsion ([3]; serosal (bath) application, 20 min, extract 1 g, PTLC1 15 mg, PTLC5 3.8 mg per 100 mL Krebs, cisapride 100 nmol/L, RS-56812 50 nmol/L): 15% |
| CN1C2CCCC1CC(NC(=O)c1nn(C)c3ccccc13)C2.Cl (stereo not shown) [granisetron, granisetron hydrochloride] | 101.4±7.0% | 99.3 ± 4.2 | 92.4 ± 1.4 | 86.5 ± 3.6 |  |
| CN(C)C(=O)C(CCN1CCC(O)(c2ccc(Cl)cc2)CC1)(c1ccccc1)c1ccccc1 [loperamide] |  |  |  |  | intestinal bloating / cecum distension ([4]; HLD rats, all doses): reduced cecum distension; cecum maximum diameter ([4]; HLD rats, loperamide 8.4 mg/L): 2.0+/−0.2 cm; fecal fluid content ([4]; HLD rats, loperamide 8.4 mg/L): 43.8±6.5%; Form of stool: Hardened normal pellets [4, 9]: ++++++; Form of stool: Loose stool with structural form of pellet [4, 9]: −; Form of stool: Loose stools + mucous (non-structural stool) [4, 9]: −; Form of stool: Soft formed pellets [4, 9]: −; Form of stool: Watery diarrhea + mucous (incontinence or profuse) [4, 9]: −; body weight change [4, 10]: -1.33 ± 0.64 g; food consumption [4, 10]: 28.50 ± 3.58 g; water (fluid) consumption [4, 10]: 43.96 ± 7.66 mL; reversal of weight loss versus untreated HLD rats ([4]; loperamide 8.4 mg/L, not significant): 1.78 g |
| Cc1nccn1CC1CCc2c(c3ccccc3n2C)C1=O (stereo not shown) [ondansetron, ondansetron hydrochloride] | 111.3±9.8% |  |  |  |  |
